# Measurements reported in article PMC4494750 (Journal of medicinal chemistry, 2011).
# Counter-ions that a name gives are not always drawn.
# What was measured:
# [1] = test system: P. falciparum pansensitive D6; test: In vitro antimalarial activity: P. falciparum growth inhibition; assay type: cell-based; details: Plasmodium falciparum, D6, 72 h, read-out: IC50 (nM) D6
# [2] = test system: P. cynomolgi; details: oral treatment, even at toxic doses; ref 7c; cited from earlier work
# [3] = test system: P. berghei; details: subcutaneous injection, mice; without cure or at doses resulting in more toxic deaths than cures; ref 7a, 7e, 7b, 16; cited from earlier work
# [4] = test system: P. yoelii-Kenya; test: In vivo antimalarial efficacy: P. yoelii murine patent infection; set-up: species or system P. yoelii in CF-1 mice; details: for weight loss or toxicity: 5 mg/kg/day by gavage
# [5] = 25 mg/kg/day by gavage, parasite-free for 28 days
Molecule,effect on survival [3],weight loss or toxicity [4],further results
"CCN(CC)CCCC(C)Nc1ccnc2cc(Cl)ccc12 (stereo not shown) [CQ, chloroquine]",,,IC50 [1]: 11 nM
"CCCCCC1=C/C(=C/c2[nH]c(-c3ccc[nH]3)cc2OC)N=C1C [Compound 1, prodigiosin]",extend survival,,antimalarial activity [2]: completely ineffective
"CCCCCCCCCCCC1=N/C(=C\c2[nH]c(-c3ccc[nH]3)cc2OC)C=C1 [Compound 2, undecylprodiginine]",extend survival,,
"CCC1CCCCCCCCC2=N/C(=C\c3[nH]c(-c4ccc[nH]4)cc3OC)C1=C2 (stereo not shown) [Compound 3, metacycloprodiginine]",extend survival,,"parasite clearance ([4]; 100 mg/kg/day by gavage): complete; weight loss ([4]; 100 mg/kg/day by gavage): temporary weight loss; mice cured ([4]; 100 mg/kg/day by gavage, parasite-free for 28 days): three of four; parasitemia ([4]; initial proof-of-principle testing, 25 mg/kg/day by gavage, 54.1% in controls): 0.28%"
COC1=CC(c2ccc[nH]2)=N/C1=C\c1[nH]ccc1Cc1ccc(Cl)cc1 [Compound 41],,without any evidence of weight loss or toxicity,
"CCCCCCCCc1cc(CCC)c(/C=C2\N=C(c3ccc[nH]3)C=C2OC)[nH]1 [Compound 48, 4′-methoxy-5′-(5-octyl-3-propyl-1H-pyrrol-2-ylmethylene)-1H,5′H-[2,2′]bipyrrolyl, hydrochloride]",,without any evidence of weight loss or toxicity,
CCCc1cc(CCC2CCCCC2)c(/C=C2\N=C(c3ccc[nH]3)C=C2OC)[nH]1 [Compound 49],,without any evidence of weight loss or toxicity,
CCCc1cc(Cc2ccc(Cl)cc2)c(/C=C2\N=C(c3ccc[nH]3)C=C2OC)[nH]1 [Compound 57],,without any evidence of weight loss or toxicity,
CCCCCCc1cc(Cc2ccc(Cl)cc2)c(/C=C2\N=C(c3ccc[nH]3)C=C2OC)[nH]1 [Compound 58],,without any evidence of weight loss or toxicity,"cures in treated group [4, 5]: one cure"
CCCCCCCCc1cc(Cc2ccc(Cl)cc2)c(/C=C2\N=C(c3ccc[nH]3)C=C2OC)[nH]1 [Compound 60],,without any evidence of weight loss or toxicity,"cures in treated group [4, 5]: one cure"
COC1=CC(c2ccc[nH]2)=N/C1=C\c1[nH]c(Cc2ccc(Cl)cc2)cc1Cc1ccc(Cl)cc1 [Compound 66],,without any evidence of weight loss or toxicity,weight loss or clinical overt toxicity ([4]; 25 mg/kg/day by gavage): without any evident weight loss or clinical overt toxicity
"CCCCCCCc1cc(/C=C2\N=C(c3ccc[nH]3)C=C2OC)[nH]c1C [Compound 76, heptylprodigiosin]",extend survival,,
"CCCC[C@H]1CCCCCCc2[nH]c(/C=C3\N=CC(c4ccc[nH]4)=C3OC)cc21 [Compound 77, butylcycloheptylprodiginine]",extend survival,,
cyclononylprodiginine [Compound 78],extend survival,,
